This is an account of results in patent US20250368628A1, “METHODS AND COMPOUNDS FOR MODULATING INHERITED GENETIC DISEASES” (Design Therapeutics, Inc., priority 2022, published 2025).

Some results are limits rather than exact numbers.

By EC50 is commonly meant the concentration needed to bring the measured effect to its halfway point.

Assay [1] concerns Myotonic Dystrophy 1 affected patient fibroblasts (Coriel GM04602; 1600 CTG repeats). Put plainly: DM1 foci reduction assay (EC50 assay; CAG10-Cy3 FISH, foci per nucleus). The following applies: Homo sapiens, Fibroblast; DM1 patient fibroblasts, 48 h treatment, foci per nucleus; read-out: DM1 EC50, 48 h. It is filed as cell-based. The essentials: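 GM04602 DM1 patient fibroblasts (1600 CTG repeats) seeded 24 h, then treated 48 h at 37 °C with an 8-point 1:3 dose series from 3 μM. Cells PFA-fixed, ethanol-permeabilized and hybridized overnight with 5 nM CAG10-Cy3 probe, DAPI counterstained. Imaged at 20×, 4 fields per well, as average foci per nucleus.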

The subject of another assay is F35T cells. The assay is described as follows: Foci reduction in FECD (CAG10-Cy3 FISH, foci per nucleus). In kind it is cell-based. The following applies: F35T cells, 48 h treatment, foci per nucleus; read-out: FECD EC50, 48 h. The method, boiled down: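 F35T cells, 5000 per well, were treated for 48 h at 37 °C, 5% CO2 in an 8-point dose response. Cells were then fixed in 4% PFA, permeabilized in 70% ethanol and hybridized overnight at 37 °C with a CAG10-Cy3 probe in 30% formamide/2×SSC. After DAPI staining, imaging gave foci per nucleus.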

Regarding `COCCOCCOCCOCCN(CCOCCOCCOCCOC)C(=O)CCCCn1cc(NC(=O)c2nc(NC(=O)CCNC(=O)c3cc(NC(=O)c4nccn4C)cn3C)cn2C)cc1C(=O)NCCCC(=O)Nc1cn(C)c(C(=O)NCCC(=O)Nc2cc(C(=O)Nc3cn(C)c(C(=O)NCCC(=O)NCCOCCOCCOCCN4CCC(C#CC#CC5CCNCC5)CC4)n3)n(C)c2)n1` [Compound B-229], the concentration for a half-maximal effect (EC50) (in assay [1]; with F35T cells) was greater than 1000 nM each time.
For `CC(Nc1cc(C(=O)NCCC(=O)Nc2cn(C)c(C(=O)Nc3cc(C(=O)NCCCC(=O)Nc4cn(C)c(C(=O)Nc5cc(C(=O)NCCC(=O)Nc6cn(C)c(C(=O)NCCC(=O)NCCCCN=[N+]=[N-])n6)n(C)c5)n4)n(C)c3)n2)n(C)c1)c1nccn1C` (stereo not shown) [Compound B-75], the EC50 in assay [1] is 500 to 1000 nM; in the assay with F35T cells it was greater than 1000 nM.
Taken in the same sequence, the figures for `CCCNC(=O)CCNC(=O)c1nc(NC(=O)c2cc(NC(=O)CCNC(=O)c3nc(NC(=O)CCCNC(=O)c4cc(NC(=O)c5nc(NC(=O)CCNC(=O)c6cc(NC(=O)c7nccn7C)cn6C)cn5C)cn4CCN=[N+]=[N-])cn3C)cn2C)cn1C` [Compound B-264] were less than 100 nM and less than 100 nM.
Take `Cn1cc(NC(=O)c2nc(NC(=O)CCNC(=O)c3cc(NC(=O)c4nccn4C)cn3C)cn2C)cc1C(=O)NCCCC(=O)Nc1cn(C)c(C(=O)NCCC(=O)Nc2cc(C(=O)Nc3cn(C)c(C(=O)NCCCNCC#Cc4cccc(C(=O)O)c4)n3)n(C)c2)n1` [Compound B-248]: the EC50 in assay [1] is 100 to 500 nM; in the assay with F35T cells, less than 100 nM.
With `CC(=O)NCCCCn1cc(NC(=O)c2nc(NC(=O)CCNC(=O)c3cc(NC(=O)c4nccn4C)cn3C)cn2C)cc1C(=O)NCCCC(=O)Nc1cn(C)c(C(=O)NCCC(=O)Nc2cc(C(=O)Nc3cn(C)c(C(=O)NCCC(=O)N4CCC(C#CC#CC5CCNCC5)CC4)n3)n(C)c2)n1` [Compound B-284], the EC50 (in assay [1]; in the assay on F35T cells) was less than 100 nM each time.
For the compound `Cn1cc(NC(=O)c2nc(NC(=O)CCNC(=O)c3cc(NC(=O)c4nccn4C)cn3C)cn2C)cc1C(=O)NCCCC(=O)Nc1cn(C)c(C(=O)NCCC(=O)Nc2cc(C(=O)Nc3cn(C)c(C(=O)NCCCO)n3)n(C)c2)n1` [Compound B-105], the EC50 (in assay [1]; in the assay with F35T cells) was 100 to 500 nM throughout.
As to `CC(C)CCNC(=O)CCNC(=O)c1nc(NC(=O)c2cc(NC(=O)CCNC(=O)c3nc(NC(=O)CCCNC(=O)c4cc(NC(=O)c5nc(NC(=O)CCNC(=O)c6cc(NC(=O)c7nccn7C)cn6C)cn5C)cn4C)cn3C)cn2C)cn1C` [Compound B-179], the EC50 in assay [1] was 100 to 500 nM; in the assay on F35T cells it was less than 100 nM.
Taken in the same sequence, the figures for `CC(Nc1cc(C(=O)NCCC(=O)Nc2cn(C)c(C(=O)Nc3cc(C(=O)NCCCC(=O)Nc4cn(C)c(C(=O)NCCC(=O)Nc5cc(C(=O)Nc6cn(C)c(C(=O)NCCC(=O)NCCOCCOCCOCCOCCOCCN)n6)n(C)c5)n4)n(C)c3)n2)n(C)c1)c1nccn1C` (stereo not shown) [Compound B-77] were 100 to 500 nM and 100 to 500 nM.
With `Cn1cc(NC(=O)c2nc(NC(=O)CCNC(=O)c3cc(NC(=O)c4nccn4C)cn3C)cn2C)cc1C(=O)NCCCC(=O)Nc1cn(C)c(C(=O)NCCC(=O)Nc2cc(C(=O)Nc3cn(C)c(C(=O)NCCC(=O)N4CCC(C#CC5=CCNCC5)CC4)n3)n(C)c2)n1` [Compound B-346], the EC50 was 100 to 500 nM in assay [1] and less than 100 nM in the assay with F35T cells.
Taken in the same sequence, the figures for `CCN(CC)CCCC[C@H](NC(C)=O)C(=O)Nc1ccc(OCCOCCOCCNC(=O)CCNC(=O)c2nc(NC(=O)c3cc(NC(=O)CCNC(=O)c4nc(NC(=O)CCCNC(=O)c5cc(NC(=O)c6nc(NC(=O)CCNC(=O)c7cc(NC(=O)c8nccn8C)cn7C)cn6C)cn5C)cn4C)cn3C)cn2C)cc1` [Compound B-147] were 100 to 500 nM and 100 to 500 nM.
On to `CC(=O)NCCOCCCn1cc(NC(=O)c2nc(NC(=O)CCNC(=O)c3cc(NC(=O)c4nccn4C)cn3C)cn2C)cc1C(=O)NCCCC(=O)Nc1cn(C)c(C(=O)NCCC(=O)Nc2cc(C(=O)Nc3cn(C)c(C(=O)NCCC(=O)N4CCC(C#CC#CC5CCN(C(C)=O)CC5)CC4)n3)n(C)c2)n1` [Compound B-305], for which the concentration for a half-maximal effect (EC50) in assay [1] is 100 to 500 nM; in the assay on F35T cells, less than 100 nM.
Taken in the same sequence, the figures for `CCN(CC)CCCC[C@@H](NC(C)=O)C(=O)Nc1ccc(OCCOCCOCCNC(=O)CCNC(=O)c2nc(NC(=O)c3cc(NC(=O)CCNC(=O)c4nc(NC(=O)CCCNC(=O)c5cc(NC(=O)c6nc(NC(=O)CCNC(=O)c7cc(NC(=O)c8nccn8C)cn7C)cn6C)cn5C)cn4C)cn3C)cn2C)cc1` [Compound B-148] were greater than 1000 nM and 100 to 500 nM.
Taken in the same sequence, the figures for `CN(C)C(=O)CCNC(=O)c1nc(NC(=O)c2cc(NC(=O)CCNC(=O)c3nc(NC(=O)CCCNC(=O)c4cc(NC(=O)c5nc(NC(=O)CCNC(=O)c6cc(NC(=O)c7nccn7C)cn6C)cn5C)cn4C)cn3C)cn2C)cn1C` [Compound B-313] were less than 100 nM and less than 100 nM.
Taken in the same sequence, the figures for `Cn1cc(NC(=O)c2nc(NC(=O)CCNC(=O)c3cc(NC(=O)c4nccn4C)cn3C)cn2C)cc1C(=O)NCCCC(=O)Nc1cn(C)c(C(=O)NCCC(=O)Nc2cc(C(=O)Nc3cn(C)c(C(=O)NCCC(=O)N4CCC(C#CC#CC5CCN(C(=O)c6cccc(C(=O)O)c6)CC5)CC4)n3)n(C)c2)n1` [Compound B-224] were greater than 1000 nM and 500 to 1000 nM.
In the case of `CCOC(=O)c1nc(NC(=O)c2cc(NC(=O)CCNC(=O)c3nc(NC(=O)CCCNC(=O)c4cc(NC(=O)c5nc(NC(=O)CCNC(=O)c6cc(NC(=O)c7nccn7C)cn6C)cn5C)cn4CCCCCCN=[N+]=[N-])cn3C)cn2C)c[nH]1` [Compound B-373], the EC50 (in assay [1]; in the assay on F35T cells) was greater than 1000 nM throughout.
For the compound `CCCNC(=O)c1cc(NC(=O)CCNC(=O)c2nc(NC(=O)CCCNC(=O)c3cc(NC(=O)c4nc(NC(=O)CCNC(=O)c5cc(NC(=O)c6nccn6C)cn5C)cn4C)cn3C)cn2C)cn1C` [Compound B-209], the 50% effective concentration (EC50) (in assay [1]; with F35T cells) was greater than 1000 nM in each case.
`CC(C)CCCN1CCC(C#CC#CC2CCN(CCCCCNC(=O)CCNC(=O)c3nc(NC(=O)c4cc(NC(=O)CCNC(=O)c5nc(NC(=O)CCCNC(=O)c6cc(NC(=O)c7nc(NC(=O)CCNC(=O)c8cc(NC(=O)c9nccn9C)cn8C)cn7C)cn6C)cn5C)cn4C)cn3C)CC2)CC1` [Compound B-185]: the EC50 in assay [1] was greater than 1000 nM; in the assay on F35T cells, 100 to 500 nM.
Taken in the same sequence, the figures for `CCOC(=O)c1nc(NC(=O)c2cc(NC(=O)CCNC(=O)c3nc(NC(=O)CCCNC(=O)c4cc(NC(=O)c5nc(NC(=O)CCNC(=O)c6cc(NC(=O)c7nccn7C)cn6C)cn5C)cn4CCCCCCn4nnc5c4-c4ccccc4N(C(=O)CCC(=O)NCCOCCOCCCCCCCl)Cc4ccccc4-5)cn3C)cn2C)cn1C` [Compound B-375] were greater than 1000 nM and greater than 1000 nM.
Consider `Cn1cc(NC(=O)c2nc(NC(=O)CCNC(=O)c3cc(NC(=O)c4nccn4C)cn3C)cn2C)cc1C(=O)NCCCC(=O)Nc1cn(C)c(C(=O)NCCC(=O)Nc2cc(C(=O)Nc3cn(C)c(C(=O)NCCC(=O)NCC#Cc4ccccc4)n3)n(C)c2)n1` [Compound B-136], for which the EC50 (in assay [1]; in the assay with F35T cells) was 100 to 500 nM in each case.
Consider `CCCNC(=O)CCNC(=O)c1nc(NC(=O)c2cc(NC(=O)CCNC(=O)c3nc(NC(=O)CCCNC(=O)c4cc(NC(=O)c5nc(NC(=O)CCNC(=O)c6cc(NC(=O)c7nccn7C)cn6C)cn5C)c[nH]4)cn3C)cn2C)cn1C` [Compound B-396], for which the 50% effective concentration (EC50) (in assay [1]; in the assay with F35T cells) was 100 to 500 nM throughout.
Take `Cn1cc(NC(=O)c2nc(NC(=O)CCNC(=O)c3cc(NC(=O)c4nccn4C)cn3C)cn2C)cc1C(=O)NCCCC(=O)Nc1cn(C)c(C(=O)NCCC(=O)Nc2cc(C(=O)Nc3cn(C)c(C(=O)NCCC(=O)NCCCO)n3)n(C)c2)n1` [Compound B-52]: the EC50 (in assay [1]; in the assay on F35T cells) was less than 100 nM throughout.
With `CC(=O)NCCCCCCn1cc(NC(=O)c2nc(NC(=O)CCNC(=O)c3cc(NC(=O)c4nccn4C)cn3C)cn2C)cc1C(=O)NCCCC(=O)Nc1cn(C)c(C(=O)NCCC(=O)Nc2cc(C(=O)Nc3cn(C)c(C(=O)NCCC(=O)N4CCC(C#CC#CC5CCN(C(C)=O)CC5)CC4)n3)n(C)c2)n1` [Compound B-293], the concentration giving a half-maximal response (EC50) lay within 500 to 1000 nM in assay [1] and 100 to 500 nM with F35T cells.
Taken in the same sequence, the figures for `CC(=O)NCCOCCn1cc(NC(=O)c2nc(NC(=O)CCNC(=O)c3cc(NC(=O)c4nccn4C)cn3C)cn2C)cc1C(=O)NCCCC(=O)Nc1cn(C)c(C(=O)NCCC(=O)Nc2cc(C(=O)Nc3cn(C)c(C(=O)NCCC(=O)N4CCC(C#CC#CC5CCN(C(C)=O)CC5)CC4)n3)n(C)c2)n1` [Compound B-299] were 100 to 500 nM and less than 100 nM.
The corresponding values for `CCCNC(=O)CCNC(=O)c1nc(NC(=O)c2cc(NC(=O)CCNC(=O)c3nc(NC(=O)CCCNC(=O)c4cc(NC(=O)c5nc(NC(=O)CCNC(=O)c6cc(NC(=O)c7nccn7C)cn6C)cn5C)cn4CCCOCCNC(C)=O)cn3C)cn2C)cn1C` [Compound B-304] are less than 100 nM and less than 100 nM.
`CCCNC(=O)c1nc(NC(=O)c2cc(NC(=O)CCNC(=O)c3nc(NC(=O)CCCNC(=O)c4cc(NC(=O)c5nc(NC(=O)CCNC(=O)c6cc(NC(=O)c7nccn7C)cn6C)cn5C)cn4C)cn3C)cn2C)cn1C` [Compound B-43]: the EC50 (in assay [1]; in the assay on F35T cells) was less than 100 nM each time.
With `Cn1cc(NC(=O)c2nc(NC(=O)CCNC(=O)c3cc(NC(=O)c4nccn4C)cn3C)cn2C)cc1C(=O)NCCCC(=O)Nc1cn(C)c(C(=O)NCCC(=O)Nc2cc(C(=O)Nc3cn(C)c(C(=O)NCCCN4CCCCC4)n3)n(C)c2)n1` [Compound B-208], the half-maximal effective concentration (EC50) (in assay [1]; in the assay on F35T cells) was 100 to 500 nM each time.
